Reference: patent US8178506B2, “Oligomeric compounds and compositions for use in modulation of small non-coding RNAs” (Regulus Therapeutics Inc., priority 2003, dated 2012)
In the oligonucleotide strings, read from the 5' end, every base follows the letter of its sugar. An asterisk marks phosphorothioate; unmarked linkages are phosphodiester. Other units and linkages are bracketed, terminal groups are in braces. A string of capitals states the bases alone. e = 2'-O-(2-methoxyethyl) (MOE); [5mC] = 5-methylcytosine; d = 2'-deoxy (DNA)

How the values were obtained:
T47D cells = experiment: Caspase-3 activity assay (apoptosis) in T47D cells; settings: for Fold Increase over UTC (caspase-3 activity, apoptosis): 200 nM oligomeric compound; for apoptosis in T47D cells: caspase assay, conclusion from Tables 9-12
[1] = test system: BJ, B16-F10, T47D, T47Dp53 and HeLa cells; experiment: Cell cycle assay (propidium iodide flow cytometry), cell line panel; type: cell-based; settings: for G1 (percentage of cells in phase of the cell cycle) / G2/M (percentage of cells in phase of the cell cycle) / S (percentage of cells in phase of the cell cycle) / SubG1 (percentage of cells in phase of the cell cycle) / aneuploid (percentage of cells): 150 nM oligomeric compound, 4.5 μg/ml LIPOFECTIN, after 72 hours, propidium iodide flow cytometry; for percentage of aneuploid cells: 150 nM, 72 hours (Table 29)
HeLa cells = experiment: Cell cycle assay in HeLa cells; type: cell-based, human; settings: for phase of the cell cycle in which cells arrest or delay: HeLa, 150 nM
aP2 = aP2 mRNA expression in adipocytes (real-time PCR); type: cell-based, human; settings: differentiating adipocytes transfected with oligomeric compound
PPARγ = PPARγ mRNA expression in adipocytes (real-time PCR); type: cell-based, human; settings: differentiating adipocytes transfected with oligomeric compound
adipocytes = experiment: Triglyceride accumulation assay in adipocytes; type: cell-based, human
Glut4 = Glut4 mRNA expression in adipocytes (real-time PCR); type: cell-based, human; settings: differentiating adipocytes transfected with oligomeric compound
HSL = HSL mRNA expression in adipocytes (real-time PCR); type: cell-based, human; settings: differentiating adipocytes transfected with oligomeric compound
[2] = T47D cells, 48 hours, experiment of Table 10
[3] = HeLa cells, 150 nM oligomeric compound, 24 hours, relative to untreated control (UTC = 100)
[4] = HeLa cells, 150 nM oligomeric compound, 48 hours after treatment, relative to untreated control (UTC=100)

328436 (antisense eG*eA*eA*eA*eA*dT*dT*dA*dT*dA*dT*dT*dG*dA*d[5mC]*eT*e[5mC]*eT*eG*eA) [compound 328436]
Fold Increase over UTC (caspase-3 activity, apoptosis) (T47D cells; [2]): 0.9 fold
G1 (percentage of cells in phase of the cell cycle) [1]: 59.2%
G2/M (percentage of cells in phase of the cell cycle) [1]: 13.9%
S (percentage of cells in phase of the cell cycle) [1]: 26.9%
SubG1 (percentage of cells in phase of the cell cycle) [1]: 3.5%
aneuploid (percentage of cells) [1]: 17.4%

328647 (eG*eG*eA*eG*eT*dA*dG*dA*dT*dG*dA*dT*dG*dG*dT*eT*eA*eG*e[5mC]*e[5mC]; antisense) [compound 328647]
Fold Increase over UTC (caspase activity) (T47D cells; T47D cells, 200 nM, 48 hours, relative to untreated control): 0.9
% cells aneuploid (HeLa cells; [3]): 140%
% cells in cell cycle phase G1 (HeLa cells; [3]): 101%
% cells in cell cycle phase G2/M (HeLa cells; [3]): 119%
% cells in cell cycle phase S (HeLa cells; [3]): 92%
% cells in cell cycle phase subG1 (HeLa cells; [3]): 140%
% cells in cell cycle phase: G1 (HeLa cells; [4]): 69%
% cells in cell cycle phase: G2/M (HeLa cells; [4]): 118%
% cells in cell cycle phase: S (HeLa cells; [4]): 153%
% cells in cell cycle phase: aneuploid (HeLa cells; [4]): 136%
% cells in cell cycle phase: subG1 (HeLa cells; [4]): 589%

328651 (eG*eG*eT*eA*eA*dG*dA*dG*dG*dA*dT*dG*d[5mC]*dG*d[5mC]*eT*eG*e[5mC]*eT*e[5mC]; antisense) [compound 328651]
AP2 mRNA (aP2): 84 percentage of untreated control (UTC)
PPAR gamma mRNA (PPARγ): 106 percentage of untreated control (UTC)
TG (triglyceride accumulation) (adipocytes; differentiating adipocytes transfected with oligomeric compound): 93 percentage of untreated control (UTC)
GLUT4 mRNA (Glut4): 78 percentage of untreated control (UTC)
Fold Increase over UTC (caspase-3 activity, apoptosis) (T47D cells; [2]): 0.9 fold
HSL mRNA (HSL): 109 percentage of untreated control (UTC)

328697 (eG*e[5mC]*eT*eT*eG*dT*d[5mC]*d[5mC]*dA*d[5mC]*dA*d[5mC]*dA*dG*dT*eT*e[5mC]*eA*eA*e[5mC]; antisense) [compound 328697]
Fold Increase over UTC (caspase-3 activity, apoptosis) (T47D cells; T47D cells, 48 hours, experiment of Table 12): 1.0 fold
G1 (percentage of cells in phase of the cell cycle) [1]: 57.6%
G2/M (percentage of cells in phase of the cell cycle) [1]: 16%
S (percentage of cells in phase of the cell cycle) [1]: 26.4%
SubG1 (percentage of cells in phase of the cell cycle) [1]: 2.4%
aneuploid (percentage of cells) [1]: 13.5%

GCTGACCTTTTTGCTTCTCA (sugars from the 5' end e5 d10 e5, all phosphorothioate, methylation of C not given here) [ISIS 138648]
triglyceride accumulation (adipocytes; preadipocytes, 250 nM, day nine): decreased triglyceride production
increase in caspase activity (T47D cells; T47D cells): 41%

ISIS 328394: oligomeric compound targeting mir-181a (eG*eT*eT*eT*eT*dT*dT*d[5mC]*dA*dA*dA*dT*d[5mC]*d[5mC]*d[5mC]*eA*eA*eA*e[5mC]*eT)
apoptosis in T47D cells (T47D cells; 200 nM): prevent or have a protective effect from apoptosis
percentage of aneuploid cells [1]: higher than average percentages of aneuploid cells

ISIS 328396: oligomeric compound targeting mir-205 (e[5mC]*eT*eG*eG*eT*dT*dG*dG*dG*dT*dA*dT*dG*dA*dG*eA*e[5mC]*eA*eG*eA)
apoptosis in T47D cells (T47D cells; 200 nM): prevent or have a protective effect from apoptosis
percentage of aneuploid cells [1]: higher than average percentages of aneuploid cells

ISIS 328421: 5-10-5 2′-MOE gapmer PS; targets mir-30d pri-miRNA (eG*e[5mC]*eT*eT*eA*dG*d[5mC]*dT*dG*dT*dG*dT*d[5mC]*dT*dT*eA*e[5mC]*eA*eG*e[5mC])
apoptosis in T47D cells (T47D cells; 200 nM): induce apoptosis
phase of the cell cycle in which cells arrest or delay (HeLa cells; 24 hours): G2/M-phase
phase of the cell cycle in which cells arrest or delay (HeLa cells; 48 hours): S- and G2/M-phases
